# Experimental data taken from BindingDB's records for doi:10.1111/j.1476-5381.1995.tb15922.x (Syntex Discovery Research, 1995).
# Key:
# B1 bradykinin receptor = molecular target: T1, B1 bradykinin receptor (Homo sapiens, UniProt P46663)
# T1 sequence (P46663 whole entry): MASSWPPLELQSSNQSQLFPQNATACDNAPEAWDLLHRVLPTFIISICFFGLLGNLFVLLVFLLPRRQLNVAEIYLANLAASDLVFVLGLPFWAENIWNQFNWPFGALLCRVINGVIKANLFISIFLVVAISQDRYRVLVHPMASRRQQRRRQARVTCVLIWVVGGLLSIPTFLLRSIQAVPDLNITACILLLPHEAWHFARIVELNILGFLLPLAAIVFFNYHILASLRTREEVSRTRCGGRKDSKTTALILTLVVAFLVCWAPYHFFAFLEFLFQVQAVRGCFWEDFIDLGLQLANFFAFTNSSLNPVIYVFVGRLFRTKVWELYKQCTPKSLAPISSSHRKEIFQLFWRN
# [1] = molecular target: T2, 5-hydroxytryptamine receptor 3A (Homo sapiens, UniProt P46098)
# T2 sequence (P46098 whole entry): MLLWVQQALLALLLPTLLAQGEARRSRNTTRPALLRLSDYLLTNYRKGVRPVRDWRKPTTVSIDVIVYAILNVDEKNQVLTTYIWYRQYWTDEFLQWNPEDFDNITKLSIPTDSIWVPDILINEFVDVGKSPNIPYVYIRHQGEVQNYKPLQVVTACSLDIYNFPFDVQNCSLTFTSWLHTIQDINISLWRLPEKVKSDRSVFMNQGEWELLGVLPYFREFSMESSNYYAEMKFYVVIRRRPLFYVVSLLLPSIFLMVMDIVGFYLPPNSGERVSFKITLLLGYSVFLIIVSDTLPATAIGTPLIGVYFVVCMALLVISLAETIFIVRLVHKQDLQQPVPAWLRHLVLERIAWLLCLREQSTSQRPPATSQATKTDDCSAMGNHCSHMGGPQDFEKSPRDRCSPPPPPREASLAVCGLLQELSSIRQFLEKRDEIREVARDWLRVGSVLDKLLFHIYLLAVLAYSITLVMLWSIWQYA
# [2] = molecular target: T3, Muscarinic acetylcholine receptor M2 (Homo sapiens, UniProt P08172)
# T3 sequence (P08172 whole entry): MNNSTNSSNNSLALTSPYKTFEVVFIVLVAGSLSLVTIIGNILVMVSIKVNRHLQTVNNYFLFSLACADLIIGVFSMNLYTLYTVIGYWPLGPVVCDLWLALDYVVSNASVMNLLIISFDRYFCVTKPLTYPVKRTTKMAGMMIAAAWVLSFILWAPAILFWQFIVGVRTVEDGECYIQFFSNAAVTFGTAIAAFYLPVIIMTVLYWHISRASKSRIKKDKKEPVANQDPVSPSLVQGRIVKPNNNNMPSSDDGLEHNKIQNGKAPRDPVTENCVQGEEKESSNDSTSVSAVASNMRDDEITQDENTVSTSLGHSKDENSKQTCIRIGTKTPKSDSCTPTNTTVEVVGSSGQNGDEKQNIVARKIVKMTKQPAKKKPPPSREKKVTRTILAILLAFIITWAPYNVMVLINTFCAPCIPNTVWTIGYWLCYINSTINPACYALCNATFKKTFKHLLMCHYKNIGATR
# [3] = molecular target: T4, Muscarinic acetylcholine receptor M1 (Homo sapiens, UniProt P11229)
# T4 sequence (P11229 whole entry): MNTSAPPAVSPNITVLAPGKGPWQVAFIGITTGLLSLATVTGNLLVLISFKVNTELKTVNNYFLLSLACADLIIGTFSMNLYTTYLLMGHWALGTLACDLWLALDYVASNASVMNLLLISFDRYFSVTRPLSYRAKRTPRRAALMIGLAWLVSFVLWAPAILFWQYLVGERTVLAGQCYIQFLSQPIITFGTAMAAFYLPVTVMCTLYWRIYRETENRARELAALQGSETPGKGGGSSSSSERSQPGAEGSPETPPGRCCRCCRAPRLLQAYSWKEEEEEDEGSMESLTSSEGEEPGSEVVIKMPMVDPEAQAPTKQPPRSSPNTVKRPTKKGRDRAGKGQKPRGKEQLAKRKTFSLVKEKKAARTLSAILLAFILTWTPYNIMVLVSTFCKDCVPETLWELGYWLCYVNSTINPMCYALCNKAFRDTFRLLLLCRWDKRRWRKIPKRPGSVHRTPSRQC
# [4] = molecular target: 5-hydroxytryptamine receptor 4 (Cavia porcellus, UniProt O70528)
# [5] = molecular target: T5, Type-1 angiotensin II receptor (Xenopus tropicalis, UniProt B3DLC0)
# T5 sequence (B3DLC0 whole entry): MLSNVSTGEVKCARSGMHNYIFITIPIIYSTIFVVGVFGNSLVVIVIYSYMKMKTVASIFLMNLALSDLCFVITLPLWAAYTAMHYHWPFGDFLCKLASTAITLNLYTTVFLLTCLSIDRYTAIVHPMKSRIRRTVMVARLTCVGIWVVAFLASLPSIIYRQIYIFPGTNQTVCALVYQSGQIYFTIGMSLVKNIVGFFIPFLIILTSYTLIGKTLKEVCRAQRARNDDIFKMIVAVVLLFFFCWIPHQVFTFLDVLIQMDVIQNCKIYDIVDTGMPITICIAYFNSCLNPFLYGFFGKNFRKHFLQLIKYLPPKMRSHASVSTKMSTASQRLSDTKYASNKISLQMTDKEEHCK
# D(2) dopamine receptor = D(2) dopamine receptor (Homo sapiens, UniProt P14416)
# [6] = molecular target: T6, 5-hydroxytryptamine receptor 2C (Homo sapiens, UniProt P28335)
# T6 sequence (P28335 whole entry): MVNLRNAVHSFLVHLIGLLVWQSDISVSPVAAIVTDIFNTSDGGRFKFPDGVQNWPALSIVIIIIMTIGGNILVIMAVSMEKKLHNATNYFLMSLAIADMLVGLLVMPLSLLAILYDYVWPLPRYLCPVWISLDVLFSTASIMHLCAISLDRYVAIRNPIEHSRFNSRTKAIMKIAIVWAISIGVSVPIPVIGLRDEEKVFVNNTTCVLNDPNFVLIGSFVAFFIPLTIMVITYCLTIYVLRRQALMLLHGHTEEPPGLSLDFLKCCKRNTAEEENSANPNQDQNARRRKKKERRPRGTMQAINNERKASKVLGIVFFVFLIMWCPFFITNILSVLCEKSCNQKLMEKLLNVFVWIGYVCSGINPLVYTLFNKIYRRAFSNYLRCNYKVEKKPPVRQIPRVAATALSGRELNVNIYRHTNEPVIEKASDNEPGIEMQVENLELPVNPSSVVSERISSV
# [7] = molecular target: T7, Alpha-1A adrenergic receptor (Homo sapiens, UniProt P35348)
# T7 sequence (P35348 whole entry): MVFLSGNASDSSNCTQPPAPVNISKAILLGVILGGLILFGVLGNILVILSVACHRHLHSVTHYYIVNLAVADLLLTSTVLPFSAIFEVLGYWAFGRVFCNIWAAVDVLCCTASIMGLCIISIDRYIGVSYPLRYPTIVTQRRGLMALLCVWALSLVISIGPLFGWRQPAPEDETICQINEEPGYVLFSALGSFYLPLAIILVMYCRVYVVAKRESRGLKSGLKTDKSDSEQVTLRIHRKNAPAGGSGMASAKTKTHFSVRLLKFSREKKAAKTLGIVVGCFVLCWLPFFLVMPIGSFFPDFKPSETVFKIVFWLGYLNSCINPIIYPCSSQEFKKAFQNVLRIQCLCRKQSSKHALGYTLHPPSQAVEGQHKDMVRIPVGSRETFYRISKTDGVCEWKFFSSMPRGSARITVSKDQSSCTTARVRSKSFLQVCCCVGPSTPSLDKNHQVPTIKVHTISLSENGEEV
# D(1A) dopamine receptor = D(1A) dopamine receptor (Homo sapiens, UniProt P21728)
# Mu-type opioid receptor = Mu-type opioid receptor (Rattus norvegicus, UniProt P33535)
# [8] = molecular target: Glutamate receptor ionotropic, NMDA 1 (Rattus norvegicus, UniProt P35439)
# Chain of D(1A) dopamine receptor (P21728 whole entry): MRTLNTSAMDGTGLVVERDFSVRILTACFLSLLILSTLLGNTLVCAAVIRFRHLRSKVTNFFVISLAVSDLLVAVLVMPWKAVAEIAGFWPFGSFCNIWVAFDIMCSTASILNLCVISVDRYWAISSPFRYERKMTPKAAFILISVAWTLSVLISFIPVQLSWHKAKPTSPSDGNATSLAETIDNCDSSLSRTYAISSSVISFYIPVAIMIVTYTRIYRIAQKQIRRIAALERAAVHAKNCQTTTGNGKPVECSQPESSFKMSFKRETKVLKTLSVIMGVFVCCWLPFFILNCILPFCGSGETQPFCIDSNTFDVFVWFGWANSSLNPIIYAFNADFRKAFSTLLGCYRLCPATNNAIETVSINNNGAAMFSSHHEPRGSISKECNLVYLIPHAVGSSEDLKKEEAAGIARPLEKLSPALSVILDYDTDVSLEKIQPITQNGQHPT
# Chain of D(2) dopamine receptor (P14416 whole entry): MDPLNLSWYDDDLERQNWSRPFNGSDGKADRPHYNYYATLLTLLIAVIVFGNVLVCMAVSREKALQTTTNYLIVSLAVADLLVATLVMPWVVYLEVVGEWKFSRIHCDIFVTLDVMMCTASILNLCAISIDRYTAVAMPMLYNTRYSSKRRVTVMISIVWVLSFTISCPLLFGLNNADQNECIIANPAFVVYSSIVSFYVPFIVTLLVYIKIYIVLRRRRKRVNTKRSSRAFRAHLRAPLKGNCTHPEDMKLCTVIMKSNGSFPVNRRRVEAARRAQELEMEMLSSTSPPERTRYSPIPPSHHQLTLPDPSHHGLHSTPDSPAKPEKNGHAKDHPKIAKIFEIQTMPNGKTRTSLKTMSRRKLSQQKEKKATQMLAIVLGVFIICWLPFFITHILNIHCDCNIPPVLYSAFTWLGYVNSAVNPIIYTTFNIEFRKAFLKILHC
# Chain of 5-hydroxytryptamine receptor 4 (O70528 whole entry): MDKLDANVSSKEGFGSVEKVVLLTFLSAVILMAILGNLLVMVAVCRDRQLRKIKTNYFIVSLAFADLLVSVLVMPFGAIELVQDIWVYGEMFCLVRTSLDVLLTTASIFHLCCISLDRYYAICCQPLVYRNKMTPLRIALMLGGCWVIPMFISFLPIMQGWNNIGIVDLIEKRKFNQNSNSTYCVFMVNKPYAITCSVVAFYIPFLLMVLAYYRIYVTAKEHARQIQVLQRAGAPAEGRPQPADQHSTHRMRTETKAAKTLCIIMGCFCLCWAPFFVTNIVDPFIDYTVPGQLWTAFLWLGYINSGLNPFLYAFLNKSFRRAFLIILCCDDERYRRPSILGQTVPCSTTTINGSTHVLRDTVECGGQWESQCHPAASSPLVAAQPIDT
# Chain of Mu-type opioid receptor (P33535 whole entry): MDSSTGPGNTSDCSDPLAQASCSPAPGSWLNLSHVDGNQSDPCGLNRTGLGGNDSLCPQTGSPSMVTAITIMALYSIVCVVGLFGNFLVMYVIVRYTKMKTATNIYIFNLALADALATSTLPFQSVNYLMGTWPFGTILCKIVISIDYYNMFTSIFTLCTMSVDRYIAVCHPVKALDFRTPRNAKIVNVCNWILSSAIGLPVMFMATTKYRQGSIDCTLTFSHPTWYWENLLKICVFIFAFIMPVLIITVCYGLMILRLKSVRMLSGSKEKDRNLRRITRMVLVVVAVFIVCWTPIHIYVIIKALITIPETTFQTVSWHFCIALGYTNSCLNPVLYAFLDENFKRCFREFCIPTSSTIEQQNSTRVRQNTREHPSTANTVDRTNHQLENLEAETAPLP
smiles,measurement,setting,value
COc1cc(COc2cc(N)c(Cl)cc2C(=O)CCC2CCN(CCNS(C)(=O)=O)CC2)cc(OC)c1 [CAS_167710-87-4],Ki,B1 bradykinin receptor,> 10000 nM
same,Ki,[1],1000 nM
same,Ki,[2],1000 nM
same,Ki,[3],1000 nM
same,Ki,[4],0.79 nM
same,Ki,[5],> 10000 nM
same,Ki,D(2) dopamine receptor,1000 nM
same,Ki,[6],794 nM
same,Ki,[7],398 nM
same,Ki,D(1A) dopamine receptor,1000 nM
same,Ki,Mu-type opioid receptor,1000 nM
same,Ki,[8],1000 nM
